Experimental findings from patent US10463753B2, “Radiolabeled monoacylglycerol lipase occupancy probe” (LUNDBECK LA JOLLA RESEARCH CENTER, INC., priority 2016, dated 2019) are described below.

The nature of data set [1]: Phase 0 study: parent fraction in blood/plasma by HPLC. The note with it: human blood. It is filed as in vivo. The protocol:
(§1) An additional cohort of four healthy volunteers (two male, two female) was recruited for a whole body biodistribution cohort in which they underwent a single Compound 8F PET scan.
(§2) Blood samples were analyzed by HPLC to determine the fraction of intact parent compound at each time point. […] Free fraction of parent compound in plasma (not protein bound) was also measured by ultrafiltration and estimated to be 0.36±0.04% (n=10).

Data set [2] can be described thus: Whole-body biodistribution and radiation dosimetry by PET imaging. It is filed as in vivo, rhesus monkey. The procedure:
The average PET image over the total acquisition duration (˜240 min) of a female rhesus is shown in FIG. 6 (abbreviations: CT=computerized tomography; gb=gallbladder; HU=Hounsfield units; PET=positron emission tomography; SUV=standardized uptake value; ub=urinary bladder; VOI=volume of interest) at three different levels through the body. […] The volumes of interest (VOIs) drawn over the organs identified as sources for the radiation dosimetry calculation can be seen on both average PET and its associated computed tomography (CT) image. […] Selected organs are labeled in the figure. The non-decay corrected (used for the dosimetry calculation) and decay corrected time activity curves of the 11 source organs are shown in FIG. 8 for both the female and male rhesus monkey. The curve values are expressed as percent of injected activity. The total absorbed doses in various target organs generated by OLINDA|EXM 1.1 software are presented in Table 4 for both adult male and adult female models in units of millisievert per megabecquerel (mSv/MBq) and roentgen equivalent man per millicurie (rem/mCi). Kidneys received the highest radiation dose in both the male and female rhesus. The effective dose equivalent (with ICRP-26 tissue weighting factors) and effective dose (with ICRP-60 tissue weighting factors) calculated for the whole body are also listed in Table 4.

A short description of data set [3]: In vitro plasma protein binding by ultrafiltration. It is filed as in vitro ADME. The settings on record: rhesus monkey, read-out: Plasma free fraction (not protein bound).
The nature of data set [4]: Phase 0 whole-body biodistribution and radiation dosimetry by PET. It is filed as in vivo, human. The protocol: as §1
Elimination via the urinary route was very low.
The following organs were identified as source organs: brain, heart, liver, gallbladder, intestines, kidneys, and urinary bladder. […] The average whole body effective dose (ED) was determined to be 2.19E-02±2.83E-04 mSv/MBq (8.10E-02±1.05E-03 rem/mCi) for adult female and 1.85E-02±7.07E-04 mSv/MBq (6.85E-02±2.62E-03 rem/mCi) for adult male, where the critical organ was determined to be the liver. Stated differently, average whole body ED for females=21.9 μSv/MBq, and for males=18.5 μSv/MBq (average for male and female=20.2 μSv/MBq).

The nature of data set [5]: Free fraction of parent compound in plasma by ultrafiltration. It is filed as in vitro ADME. The note with it: human plasma, n=10; read-out: Free fraction of parent compound in plasma (not protein bound). The procedure:
as §2

The conditions of data set [6]: arterial plasma.
[7] abbreviates: whole-body biodistribution cohort.

Consider `O=C(OC(C(F)(F)F)C(F)(F)F)N1CCN(Cc2ccc(Cl)cc2N2CCN(CC[18F])CC2)CC1` [Compound 8F, [^18F]1,1,1,3,3,3-hexafluoropropan-2-yl 4-(4-chloro-2-(4-(2-fluoroethyl)piperazin-1-yl)benzyl)piperazine-1-carboxylate], for which the “Stability in blood ex vivo” value in data set [1] is given as “stable”. In addition, the “Organ receiving the highest radiation dose” value in data set [2] (both male and female rhesus) is “Kidneys”. Besides, the “Organs with the highest uptake” value in data set [2] (i.v. bolus, whole-body PET) is “liver, heart wall, lungs, kidney and brain”. In addition, in data set [3] (first study), the fraction unbound came out at 0.047 ± 0.006. In addition, the fraction unbound in data set [3] (second study) came out at 0.008 ± 0.0004. In addition, the “Average whole body ED” value in data set [4] (average for male and female) worked out at 20.2 μSv/MBq. Further, the “Average whole body ED” value in data set [4] (females) is 21.9 μSv/MBq. For the same molecule, the “Average whole body ED” value in data set [4] (males) stood at 18.5 μSv/MBq. For the same molecule, in data set [4] (setting [7]), the “Elimination via the urinary route” value is listed as “very low”, the “Maximum injected dose (ID) in the intestine” value is given as 6-7 % ID, the “Maximum injected dose (ID) in the liver” value is listed as 26-28 % injected dose (ID) and the “Organ with highest radiation absorbed dose (critical organ)” value is given as “liver”. In addition, the “Route of elimination of the radiotracer” value in data set [4] (setting [7]) is “primarily via hepatobiliary route”. Further, the fraction unbound in data set [5] was found to be 0.0036 ± 0.0004. Besides, the Plasma level in data set [6] (by ~10 min post-dose) is recorded as ≤ 0.01 % of the injected dose. Also, the Peak plasma concentration in data set [6] (single i.v. 2.25-4.99 mCi) is ~0.04 % of the injected dose. Besides, the “Time of peak plasma concentration post-dose” value in data set [6] (single i.v. dose) was approximately 5 min.
